Molecules are shown by their SMILES. Peptide text beside a SMILES is read from it.

Common to all, as to test: Fluorescence polarization SH3 domain-PRP binding
Test [1] addresses T1, SNX9 SH3 domain (aa 1-62) (Homo sapiens, UniProt Q9Y5X1).
T1 construct: 1-62; GST (N); made in house; host or cells: Escherichia coli CodonPlus, Rosetta, BL21(DE3)
To be noted: FP, 0.2 µM fluorescein-labeled peptide, SH3 domain 0-200 µM, Tris/HCl pH 7.5, 25 °C, quadratic fit. The method, then: (§1) The interaction between fluorescein-labeled proline-rich peptides (0.2 µM) and increasing concentrations of SH3 domains (ranging from 0 to 200 µM) was measured in a buffer (containing 30 mM Tris/HCl (pH 7.5), 5 mM MgCl2, and 3 mM DTT at 25 °C) in a total volume of 200 µL using a Fluoromax 4 fluorimeter in polarization mode and a quartz glass fluorescence cuvette (Hellma Ultra-Micro Cuvette 105.250-QS, Thermo Fisher Scientific, Waltham, MA USA). Excitation was performed at 470 nm and emission was measured at 560 nm. Dissociation constants (Kd) were determined by fitting the concentration-dependent binding curve to a quadratic ligand binding equation.
(§2) Fluorescence polarization measurements were performed to determine the binding affinities of SH3 domain–PRP interaction pairs from the dot blot analysis. SH3 proteins were titrated at increasing concentrations against fluorescent PRPs, which were kept at a constant concentration of 0.2 µM. GRB2-2^W193K, which is defective in the binding of PRPs such as RP1, was used as a negative control as previously described. […] The resulting data (Figure S6) allowed the evaluation of equilibrium dissociation constants (Kd) for 45 interactions between the SH3 domains and the PRPs (Figure 2B; Table S6).
(§3) Figure S6. Interactions of the SH3 domains with fluorescent PRPs measured by fluorescence polarization.
(§4) Fluorescent peptides (0.2 µM) were titrated with increasing concentrations of the corresponding SH3 domains.
(§5) GRB2-2W193K, defective in the binding of PRPs such as RP1, was used as a negative control as previously described. The x-axis represents SH3 domain concentrations as GST fusion proteins in µM, while the y-axis represents fluorescence polarization. The equilibrium dissociation constants (Kd) for the respective measurements were determined by fitting the titration curves to a quadratic ligand-binding equation (solid lines). All Kd values are […]
(§6) Error bars are derived from the fitting errors.

The target of the next test is T2, NPHP1 SH3 domain (Homo sapiens, UniProt O15259).
T2 construct: GST (N); made in house; host or cells: Escherichia coli CodonPlus, Rosetta, BL21(DE3)
T2 sequence (O15259 152-212 limits assumed): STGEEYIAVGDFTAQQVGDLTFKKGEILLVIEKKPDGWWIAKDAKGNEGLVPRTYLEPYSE
To be noted: FP, 0.2 µM fluorescein-labeled peptide, SH3 domain 0-200 µM, Tris/HCl pH 7.5, 25 °C, quadratic fit. How it is done: as §1, §2, §3, §4, §5, §6

For test [2], the target named is T3, SH3GLB1 SH3 domain (aa 305-365) (Homo sapiens, UniProt Q9Y371).
T3 construct: 305-365; GST (N); made in house; host or cells: Escherichia coli CodonPlus, Rosetta, BL21(DE3)
T3 sequence (Q9Y371 305-365): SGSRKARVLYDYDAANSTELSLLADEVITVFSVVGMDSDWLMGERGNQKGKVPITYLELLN
To be noted: FP, 0.2 µM fluorescein-labeled peptide, SH3 domain 0-200 µM, Tris/HCl pH 7.5, 25 °C, quadratic fit. The method, then:
as §1, §2, §3, §4, §5, §6

In test [3] the target is T4, ITSN1-5 SH3 domain (aa 1155-1214) (Homo sapiens, UniProt Q15811).
T4 construct: 1155-1214; GST (N); made in house; host or cells: Escherichia coli CodonPlus, Rosetta, BL21(DE3)
T4 sequence (Q15811 1155-1214): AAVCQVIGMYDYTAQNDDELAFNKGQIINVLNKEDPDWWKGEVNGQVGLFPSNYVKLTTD
To be noted: FP, 0.2 µM fluorescein-labeled peptide, SH3 domain 0-200 µM, Tris/HCl pH 7.5, 25 °C, quadratic fit. The method, then:
as §1, §2, §3, §4, §5, §6

For test [4], the target named is T5, SORBS1-1 SH3 domain (aa 793-852) (Homo sapiens, UniProt Q9BX66).
T5 construct: 793-852; GST (N); made in house; host or cells: Escherichia coli CodonPlus, Rosetta, BL21(DE3)
T5 sequence (Q9BX66 793-852): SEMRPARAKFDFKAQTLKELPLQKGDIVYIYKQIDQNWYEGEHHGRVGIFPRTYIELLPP
To be noted: FP, 0.2 µM fluorescein-labeled peptide, SH3 domain 0-200 µM, Tris/HCl pH 7.5, 25 °C, quadratic fit. The method, then:
as §1, §2, §3, §4, §5, §6

The target in test [5] is T6, RASA1 SH3 domain (aa 279–341) (Homo sapiens, UniProt P20936).
T6 construct: 279–341; GST (N); made in house; host or cells: Escherichia coli CodonPlus, Rosetta, BL21(DE3)
T6 sequence (P20936 279-341): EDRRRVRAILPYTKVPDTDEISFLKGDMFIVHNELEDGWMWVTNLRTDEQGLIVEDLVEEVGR
To be noted: FP, 0.2 µM fluorescein-labeled peptide, SH3 domain 0-200 µM, Tris/HCl pH 7.5, 25 °C, quadratic fit. The method, then: as §1, §2, §3, §4, §5, §6

The target of test [6] is T7, NCK1-1 SH3 domain (aa 2-61) (Homo sapiens, UniProt P16333).
T7 construct: 2-61; GST (N); made in house; host or cells: Escherichia coli CodonPlus, Rosetta, BL21(DE3)
To be noted: FP, 0.2 µM fluorescein-labeled peptide, SH3 domain 0-200 µM, Tris/HCl pH 7.5, 25 °C, quadratic fit, read-out: Kd. The method, then: as §1, §2, §3, §4, §5, §6

Test [7] has as its target T8, SH3PXD2A-1 SH3 domain (aa 166-225) (Homo sapiens, UniProt Q5TCZ1).
T8 construct: 166-225; GST (N); made in house; host or cells: Escherichia coli CodonPlus, Rosetta, BL21(DE3)
T8 sequence (Q5TCZ1 166-225): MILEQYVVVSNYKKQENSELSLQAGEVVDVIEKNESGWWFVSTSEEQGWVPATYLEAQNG
To be noted: FP, 0.2 µM fluorescein-labeled peptide, SH3 domain 0-200 µM, Tris/HCl pH 7.5, 25 °C, quadratic fit. The method, then:
as §1, §2, §3, §4, §5, §6

The target of test [8] is T9, RIMBP3B-1 SH3 domain (aa 832-899) (Homo sapiens, UniProt A6NNM3).
T9 construct: 832-899; GST (N); made in house; host or cells: Escherichia coli CodonPlus, Rosetta, BL21(DE3)
T9 sequence (A6NNM3 832-899): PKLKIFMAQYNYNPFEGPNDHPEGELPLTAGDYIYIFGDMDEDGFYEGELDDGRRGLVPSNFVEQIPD
To be noted: FP, 0.2 µM fluorescein-labeled peptide, SH3 domain 0-200 µM, Tris/HCl pH 7.5, 25 °C, quadratic fit. The method, then:
as §1, §2, §3, §4, §5, §6

For test [9], the target named is T10, SRC SH3 domain (aa 77-140) (Homo sapiens, UniProt P12931).
T10 construct: 77-140; GST (N); made in house; host or cells: Escherichia coli CodonPlus, Rosetta, BL21(DE3)
To be noted: FP, 0.2 µM fluorescein-labeled peptide, SH3 domain 0-200 µM, Tris/HCl pH 7.5, 25 °C, quadratic fit. The method, then:
as §1, §2, §3, §4, §5, §6

The target in test [10] is T11, NCK1-2 SH3 domain (aa 106-165) (Homo sapiens, UniProt P16333).
T11 construct: 106-165; GST (N); made in house; host or cells: Escherichia coli CodonPlus, Rosetta, BL21(DE3)
To be noted: FP, 0.2 µM fluorescein-labeled peptide, SH3 domain 0-200 µM, Tris/HCl pH 7.5, 25 °C, quadratic fit, read-out: Kd. The method, then:
as §1, §2, §3, §4, §5, §6

Test [11] concerns the target T12, NCK1-3 SH3 domain (aa 190–252) (Homo sapiens, UniProt P16333).
T12 construct: 190–252; GST (N); made in house; host or cells: Escherichia coli CodonPlus, Rosetta, BL21(DE3)
To be noted: NCK1-3 (wt); FP, 0.2 µM fluorescein-labeled peptide, SH3 domain 0-200 µM, Tris/HCl pH 7.5, 25 °C, quadratic fit; read-out: Kd. The method, then:
as §1, §2, §3, §4, §5, §6

T1 sequence (Q9Y5X1 1-62): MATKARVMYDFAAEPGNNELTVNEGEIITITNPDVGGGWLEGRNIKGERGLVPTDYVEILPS
T10 sequence (P12931 77-140 limits assumed): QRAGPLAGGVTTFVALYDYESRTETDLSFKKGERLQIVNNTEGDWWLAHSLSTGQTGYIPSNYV

In general, Kd refers to the constant that tells how readily two partners part at equilibrium. Turning to `CC(C)C[C@H](NC(=O)[C@H](Cc1c[nH]cn1)NC(=O)[C@H](CC(C)C)NC(=O)[C@@H]1CCCN1C(=O)[C@H](CO)NC(=O)[C@H](CO)NC(=O)[C@@H](N)CO)C(=O)N[C@@H](CCC(N)=O)C(=O)N1CCC[C@H]1C(=O)N1CCC[C@H]1C(=O)N1CCC[C@H]1C(=O)N[C@@H](CC(C)C)C(=O)NCC(=O)N[C@@H](CCCCN)C(=O)N[C@@H](CCCCN)C(=O)O` [Peptide P6] (H-SSSPLHLQPPPLGKK-OH; N-terminus and C-terminus assumed), the Kd (in test [1]; on NPHP1 SH3 domain; in test [2]; in test [3]; in test [4]; in test [5]) was more than 200 µM in each case. Besides, the Kd in test [6], in [7], in test [8], in test [9], in [10] and in test [11] was more than 200 µM each time.
With `CC[C@H](C)[C@H](NC(=O)[C@H](CCCCN)NC(=O)[C@H](CO)NC(=O)[C@@H]1CCCN1C(=O)[C@H](CO)NC(=O)[C@H](CO)NC(=O)[C@H](CCC(=O)O)NC(=O)[C@H](C)NC(=O)[C@@H]1CCCN1C(=O)[C@H](C)NC(=O)[C@H](CO)NC(=O)[C@H](CCC(=O)O)NC(=O)[C@@H]1CCCN1C(=O)[C@H](CCCNC(=N)N)NC(=O)[C@H](CCCNC(=N)N)NC(=O)[C@H](CCCNC(=N)N)NC(=O)[C@@H]1CCCN1C(=O)[C@@H]1CCCN1C(=O)[C@@H](NC(=O)[C@@H]1CCCN1C(=O)[C@@H]1CCCN1C(=O)[C@@H]1CCCN1C(=O)[C@@H](NC(=O)[C@@H]1CCCN1C(=O)[C@@H](NC(=O)[C@@H](N)CCC(=O)O)C(C)C)C(C)C)C(C)C)C(=O)O` [Peptide P3] (H-EVPVPPPVPPRRRPESAPAESSPSKI-OH), the Kd (in test [1]; on NPHP1 SH3 domain; in test [2]; in test [3]; in test [4]; in test [5]) was more than 200 µM in each case. Further, the Kd in test [6] was more than 200 µM; in test [7], 18 µM; in test [8], more than 200 µM; in test [9] it was 2 µM; in test [10], more than 200 µM; in [11] it was more than 200 µM.
On to `C[C@H](N)C(=O)N[C@@H](Cc1ccccc1)C(=O)N[C@@H](Cc1ccccc1)C(=O)N1CCC[C@H]1C(=O)N[C@@H](CC(N)=O)C(=O)N[C@@H](CO)C(=O)N1CCC[C@H]1C(=O)N[C@@H](CO)C(=O)N1CCC[C@H]1C(=O)N[C@@H](Cc1ccccc1)C(=O)N[C@H](C(=O)N1CCC[C@H]1C(=O)N1CCC[C@H]1C(=O)N1CCC[C@H]1C(=O)N1CCC[C@H]1C(=O)N[C@@H](CCC(N)=O)C(=O)N[C@H](C(=O)N1CCC[C@H]1C(=O)N[C@@H](CO)C(=O)N1CCC[C@H]1C(=O)N[C@@H](Cc1c[nH]cn1)C(=O)NCC(=O)N[C@H](C(=O)O)[C@@H](C)O)[C@@H](C)O)[C@@H](C)O` [Peptide P7] (H-AFFPNSPSPFTPPPPQTPSPHGT-OH), for which the Kd is more than 200 µM in test [1]; more than 200 µM at NPHP1 SH3 domain; more than 200 µM in test [2]; more than 200 µM in test [3]; 13.2 µM in test [4]; more than 200 µM in [5]. In addition, the Kd in [6] is more than 200 µM; in test [7] it was more than 200 µM; in test [8], 15 µM; in [9], 13.3 µM; in [10], more than 200 µM; in test [11], more than 200 µM.
Turning to `CC[C@H](C)[C@H](N)C(=O)N[C@@H](CO)C(=O)N[C@@H](CC(=O)O)C(=O)N1CCC[C@H]1C(=O)N1CCC[C@H]1C(=O)N[C@@H](CCC(=O)O)C(=O)N[C@@H](CO)C(=O)N1CCC[C@H]1C(=O)N1CCC[C@H]1C(=O)N[C@@H](CC(C)C)C(=O)N[C@@H](CC(C)C)C(=O)N1CCC[C@H]1C(=O)N1CCC[C@H]1C(=O)N[C@@H](CCCNC(=N)N)C(=O)N[C@@H](CCC(=O)O)C(=O)N1CCC[C@H]1C(=O)N[C@H](C(=O)N[C@@H](CCCNC(=N)N)C(=O)N[C@H](C(=O)N1CCC[C@H]1C(=O)N[C@@H](CC(=O)O)C(=O)N[C@H](C(=O)O)C(C)C)[C@@H](C)O)C(C)C` [Peptide P5] (H-ISDPPESPPLLPPREPVRTPDV-OH), the Kd (in test [1]; at NPHP1 SH3 domain; in test [2]; in [3]; in [4]; in test [5]) was more than 200 µM each time. In addition, the Kd in test [6], in [7], in [8], in [9], in [10] and in [11] was more than 200 µM each time.
In the case of `CC(C)C[C@H](NC(=O)[C@@H]1CCCN1C(=O)[C@@H]1CCCN1C(=O)[C@H](CO)NC(=O)[C@@H]1CCCN1C(=O)[C@H](CC(C)C)NC(=O)[C@H](Cc1c[nH]cn1)NC(=O)[C@@H](N)CCCNC(=N)N)C(=O)N[C@H](C(=O)N[C@@H](CCC(N)=O)C(=O)O)[C@@H](C)O` [Peptide P8] (H-RHLPSPPLTQ-OH; N-terminus and C-terminus assumed), the Kd (in test [1]; on NPHP1 SH3 domain; in [2]; in [3]; in test [4]; in test [5]) was more than 200 µM in each case. For the same compound, the dissociation constant (Kd) in test [6], in [7], in test [8], in test [9], in [10] and in [11] was more than 200 µM each time.

For the origin of these results see paper PMC10814857, “Functional Classification and Interaction Selectivity Landscape of the Human SH3 Domain Superfamily” (Cells, 2024).
